Drawing on ChEMBL document CHEMBL5053487 (J Med Chem, 2021), this text covers IC50 and T/C for six compounds.

In general, IC50 refers to the concentration that gives 50% inhibition. Lower therefore signals greater potency in that assay. A word on the T/C: it is the ratio of treated to control.

In test [1] the target is T1, Estrogen receptor (Homo sapiens, UniProt P03372).
T1 sequence (P03372 whole entry): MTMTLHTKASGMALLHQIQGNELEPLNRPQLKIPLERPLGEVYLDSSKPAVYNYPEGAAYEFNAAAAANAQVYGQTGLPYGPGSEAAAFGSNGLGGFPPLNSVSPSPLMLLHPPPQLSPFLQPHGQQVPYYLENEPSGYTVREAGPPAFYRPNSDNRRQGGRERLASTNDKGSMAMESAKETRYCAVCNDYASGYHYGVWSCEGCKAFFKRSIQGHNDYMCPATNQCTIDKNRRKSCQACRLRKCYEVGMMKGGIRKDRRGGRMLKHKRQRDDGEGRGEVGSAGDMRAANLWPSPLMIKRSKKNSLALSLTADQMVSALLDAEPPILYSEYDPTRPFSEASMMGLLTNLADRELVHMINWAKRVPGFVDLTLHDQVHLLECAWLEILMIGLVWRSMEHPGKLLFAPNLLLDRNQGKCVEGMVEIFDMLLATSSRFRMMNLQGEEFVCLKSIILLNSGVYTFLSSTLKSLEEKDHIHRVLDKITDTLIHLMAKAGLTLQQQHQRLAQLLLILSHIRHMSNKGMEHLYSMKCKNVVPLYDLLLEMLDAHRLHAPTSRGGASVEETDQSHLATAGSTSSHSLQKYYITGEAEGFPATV
Description: Antagonist activity at ERalpha (unknown origin) assessed as inhibition of fluorescein-labeled PGC-1 coactivator recruitment incubated for 30 mins measured by TR-FRET assay

Test [2] can be described thus: Antiproliferative activity on human MCF7/TAMR-1 cells at 10 uM assessed as ratio of T/C measured up to 144 hrs relative to control. Format: functional, MCF-7/TAMR-1.
Test [3] relates to MCF7. The test is described as follows: Antiproliferative activity on human MCF7 cells at 5 to 20 uM assessed as ratio of T/C measured up to 144 hrs relative to control. Type of test: functional. To be noted: dose 5-20 µM.

For the compound `CCC(=C(c1ccc(O)cc1)c1ccc(/C=C/C(=O)NCCCCCNC(=O)CCc2nc3cc(O)ccc3[nH]2)cc1)c1ccccc1` (mixture of isomers), in test [1], the concentration for half-maximal inhibition (IC50) came to 125 nM.
For `CCC(=C(c1ccc(O)cc1)c1ccc(/C=C/C(=O)NCCCCCCNC(=O)CCc2nc3cc(OC)ccc3[nH]2)cc1)c1ccccc1` (mixture of isomers), in test [2], the T/C was 40%.
`CCC(=C(c1ccc(O)cc1)c1ccc(/C=C/C(=O)NCCCNC(=O)CCCn2c(=S)[nH]c3ccccc3c2=O)cc1)c1ccccc1` (mixture of isomers): the T/C in test [2] was determined as 40%.
`CCC(=C(c1ccc(O)cc1)c1ccc(/C=C/C(=O)NCCCCCCNC(=O)CCc2nc3cc(O)ccc3[nH]2)cc1)c1ccccc1` (mixture of isomers): in test [2], the T/C was 40%.
Same read-out and setting: in the case of `CCC(=C(c1ccc(O)cc1)c1ccc(/C=C/C(=O)NCCCNC(=O)c2ccc(N3CCN(C(=O)CCCn4c(=S)[nH]c5ccccc5c4=O)CC3)cc2)cc1)c1ccccc1` (mixture of isomers) it was 40%.
In the case of `C[C@]12CC[C@@H]3c4ccc(O)cc4C[C@@H](CCCCCCCCC[S+]([O-])CCCC(F)(F)C(F)(F)F)[C@H]3[C@@H]1CC[C@@H]2O` (stereo partly specified) [FULVESTRANT], the T/C in test [3] came to 30%.
